Assay results: ChEMBL document CHEMBL1133142, “Synthesis of dolichyl phosphate derivatives with fluorescent label at the omega-end of the chain, new tools to study protein glycosylation” (Bioorg Med Chem Lett, 2000)

How the values were obtained:
[1] = system: Saccharomyces cerevisiae; experiment: Tested for the kinetic parameter relative Kcat on Dolichyl phosphate mannose synthase
[2] = system: Saccharomyces cerevisiae; experiment: Tested for the kinetic constant (Km) against the enzyme Dolichyl phosphate mannose synthase

- k cat [1]: 1.27
- Km [2]: 11.7 µM
Compound: C/C(=C\CC/C(C)=C/CC/C(C)=C/CC/C(C)=C/CC/C(C)=C/CC/C(C)=C/CC/C(C)=C/CCC(C)CCOP(=O)(O)O)CC/C=C(\C)CC/C=C(\C)CC/C=C(\C)CC/C=C(\C)CC/C=C(\C)CC/C=C(\C)CC/C=C(\C)CCCNc1cccc2ccccc12 (configuration not stated)
